According to US10300052B2, “Methods for increasing CFTR activity” (THE UAB RESEARCH FOUNDATION, priority 2012, dated 2019):

System: porcine trachea CFTR−/−
Experiment: μOCT imaging of airway epithelial function in porcine trachea, CFTR-/- animals
Conditions: sequential ivacaftor 10 μM, forskolin 100 nM, acetylcholine 100 μM in bath, 37° C. (FIG. 7G)
Description: FIGS. 7A-7H show the effects of CFTR activators on airway epithelial function in intact porcine trachea by μOCT. FIGS. 7A-7B show representative μOCT images for a CFTR−/− (FIG. 7A) and CFTR+/+ (FIG. 7B) animal. FIGS. 7C-7F, respectively, show ASL depth (FIG. 7C), PCL depth (FIG. 7D), CBF (FIG. 7E) and MCT (FIG. 7F) measurements derived from μOCT images from CFTR−/− and CFTR+/+ animals. FIGS. 7G and 7H show the response of epithelial functional parameters, namely ASL depth and MCT in CFTR−/− (FIG. 7G) and CFTR+/+(FIG. 7H) animals in response to sequential pharmacologic intervention by ivacaftor (10 μM), forskolin (100 nM) and acetylcholine (100 μM).
To further investigate the role of CFTR activators in modulating airway epithelial cell function, CFTR activators were studied in combination with porcine trachea. In this example, porcine trachea from animals having a mutated CFTR (CFTR (−/−) and from animals having a WT-CFTR (CFTR+/+) were evaluated for ASL depth, PCL depth, CBF and MCT. The results are shown in FIGS. 7A-7H.
FIGS. 7G and 7H show the response of epithelial functional parameters, namely ASL depth, CBF and MCT in CFTR−/− and CFTR+/+ animals in response to sequential pharmacologic intervention by ivacaftor (10 μM), forskolin (100 nM) and acetylcholine (100 μM); in this experiment, acetylcholine served as a positive control to induce glandular extrusion in CF tissue). In these experiments, agonists were added to the bath solution and all experiments were conducted under physiological conditions (37° C. and 100% humidity). […] In contrast to FIG. 7G, ASL depth, CBF and MCT were all increased in response to ivacaftor treatment in CFTR+/+ animals, consistent with the results described above for human tissue.
Normal piglet tracheas were obtained from Exemplar Genetics (Sioux Center, Iowa). Tissue were dissected from one-day-old piglets and shipped on wet ice in DMEM. A modified protocol based on airway tissue handling and preparation methods developed by Ballard et al. (Am J Physiol Lung Cell Mol Physiol 298: L270-276, 2010) was employed. Tracheas were immersed in 80 mL Ringer bicarbonate solution (KRB) baths at room temperature and slowly warmed to 37° C. After four hours of pretreatment, the tracheas were removed from the KRB. Accessible mucus and liquid were aspirated from the airway lumens and the tracheal ends were cannulated so that the serosal surface was bathed in KRB [29] without contacting the mucosal surface, as previously described (Ballard et al., Am J Physiol Lung Cell Mol Physiol 298: L270-276, 2010; Martens, et al., Am J Physiol Lung Cell Mol Physiol 301: L236-246, 2011). Tracheas were allowed to equilibrate in KRB bubbled with 95% 02 and 5% CO2 at 37° C. and the luminal side exposed to conditioned air at 100% humidity for 2 hours prior to mOCT imaging (Sleigh et al., Comp Biochem Physiol A Comp Physiol 94: 359-364, 1989).
The μOCT system is a spectral-domain OCT implementation with several improvements to standard OCT that yield high resolution in both lateral and axial directions. The general layout and axial resolution characterization have been described (Liu et al., PLOSOne, 8(1), E54473-2013). A super-continuum source (Fianium SC450) provides the high-bandwidth, short coherence length light necessary for high axial resolution ([…]). A typical OCT system includes an interferometer with the reference and sample arms intersecting at a beamsplitter. The beamsplitter is replaced in μOCT with a 45 degree rod mirror, which apodizes the sample beam by introducing a circular obscuration in the center to achieve a balance of good lateral resolution (2 μm) and long depth of focus (0.2 mm). Custom software is employed to control the galvanometer scanning motors while acquiring spectral data from the line camera. […]

C=C[C@@]1(C)CC(=O)[C@]2(O)[C@@]3(C)[C@@H](O)CCC(C)(C)[C@@H]3[C@H](O)[C@H](OC(C)=O)[C@@]2(C)O1 [forskolin]
no response: ASL depth response | CBF response | MCT response
